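Tested at 5 concentrations; 48 h exposure; 96-well plates; endpoints linearly interpolated, else capped at highest concentration. TGI marks complete inhibition of growth.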
Legend:
Test in all cases: NCI tumour cell line growth inhibition, 48 h
MDA-MB-231 breast = test system: MDA-MB-231 breast
RPMI-8226 leukemia = test system: RPMI-8226 leukemia
A549 NSCLC = test system: A549 NSCLC
HCT-15 colon = test system: HCT-15 colon
HCC-2998 colon = test system: HCC-2998 colon
786-0 renal = test system: 786-0 renal
SNB-19 CNS = test system: SNB-19 CNS
SW-620 colon = test system: SW-620 colon
NCI-H226 lung = test system: NCI-H226 lung

Compound	TGI (MDA-MB-231 breast) [µM]	TGI (RPMI-8226 leukemia) [µM]	TGI (A549 NSCLC) [µM]	TGI (HCT-15 colon) [µM]	TGI (HCC-2998 colon) [µM]	TGI (786-0 renal) [µM]	TGI (SNB-19 CNS) [µM]	TGI (SW-620 colon) [µM]	TGI (NCI-H226 lung) [µM]
CCOC(=O)Cc1nc2c(=O)[nH]cnc2n1C1OC(COC(C)=O)C(OC(C)=O)C1OC(C)=O (centres undefined)	> 100	> 100	> 100	> 100	> 100	> 100	> 100	> 100	> 100
CC(=O)Nc1ncc2c(n1)-c1ccccc1OC2	> 100	> 100	> 100	> 100	–	> 100	> 100	> 100	> 100
COC(=O)c1cc2c3c(c(C(C)=O)c(OC)c2[nH]1)NCC3	> 50	> 50	–	> 50	–	> 50	> 50	> 50	> 50
Cc1nn(C(=O)c2ccccc2O)c2c1C(c1ccc(O)cc1)SC(N)=N2 (centres undefined)	> 10	> 5.38	> 10	> 10	> 10	> 10	> 10	> 10	> 6.22
BrCC[P+](c1ccccc1)(c1ccccc1)c1ccccc1	34.8	8.08	> 100	> 100	27.2	10.4	62.1	34.4	–
CC(=O)OCC1OC(n2c3c(c(-c4ccco4)c(C#N)c2=S)CCCC3)C(OC(C)=O)C(OC(C)=O)C1OC(C)=O (centres undefined)	> 31.6	> 100	> 31.6	> 31.6	–	52.6	26.2	> 100	> 31.6
COc1cc(O)c2c(c1)C(O)C(O)CC1OC1C(=O)/C=C/CC(C)OC2=O (centres undefined)	16.1	34.5	67.8	17	16.7	13.8	58.2	6.84	33.9
O=C(O)c1ccccc1-c1ccccc1C(=O)c1ccccc1	> 100	> 100	> 100	> 100	–	> 100	> 100	> 100	> 100
COc1ccc(C[C@H]2COC(=O)[C@@H]2Cc2cc(OC)c(OC)c(OC)c2)cc1OC	> 100	> 100	> 100	> 100	> 100	> 100	> 100	> 100	> 100
CNC(=O)OCC1=C(COC(=O)NC)CN(c2ccccc2)C1	> 100	> 100	> 100	> 100	> 100	> 100	> 100	> 100	> 100
NC(CO)c1ccccc1 (centres undefined)	–	–	> 100	> 100	> 100	–	> 100	> 100	> 100
C[C@@H](C[C@@H](O)[C@H](O)C(C)(C)O)[C@H]1CC=C2[C@]3(C)[C@H](O)C[C@H]4C(C)(C)[C@H](O)CC[C@]4(C)[C@H]3CC[C@@]21C	27.4	48.2	26.4	36.1	37.9	28.2	32.7	32.3	41.1
